Experimental data taken from US20240415845A1, “Compositions of Iboga Alkaloids and Methods of Treatment” (priority 2022, published 2024).

Legend:
[1] = system: special operations veterans with combat and/or blast exposure; assay: Self-reported alcohol consumption and intoxication; assay type: in vivo, human; details: one month following treatment
Experimental: Alcohol consumption in the enrolled subjects was also evaluated. At baseline, 11 of the 30 enrolled subjects reported drinking at least four days per week and 12 of the 30 enrolled subjects reported drinking at least four days per week over the last month. Some of the subjects reported drinking daily. One month following treatment, none (zero) of the enrolled subjects reported drinking more than three times per week. 28 of the 30 enrolled subjects reported drinking less than twice per week over the past month.
Intoxication by alcohol was also evaluated in the enrolled subjects. At baseline, 9 of the 30 enrolled subjects reported being intoxicated more than once over the last 30 days, with some subjects reporting being intoxicated for 25 of the last 30 days. One month following treatment, one participant reported four episodes of intoxication after reporting 23 episodes at baseline.

[2] = in vivo; cited from earlier work
[3] = system: special operations veterans with combat and/or blast exposure; assay: Montgomery-Asberg Depression Rating Scale (MADRS), incl. suicidal ideation item Q10; assay type: in vivo, human; details: for Suicidal Ideation (MADRS Q10), % Reporting: only participants with non-zero suicidal ideation at baseline (N 14), baseline 100%
Excerpt: The pre-specified primary outcome was change in the World Health Organization Disability Assessment Schedule 2.0 (WHODAS) (Gold L. H. et al., J. Am. Acad. Psychiatry Law 42, 9 (2014)) from baseline to post-treatment, with change from baseline to the one-month follow-up a secondary outcome. Additional pre-specified secondary outcomes included post-treatment changes on the Clinician Administered PTSD Scale (CAPS-5; Weathers, F. W. et al., Psychol. Assess., 30, 383-395 (2018)), Montgomery-Åsberg Depression Rating Scale (MADRS; Montgomery, S. A., Br. J. Psychiatry J. Ment. Sci., 134, 382-389 (1979)) and the Hamilton-Anxiety Rating Scale (HAM-A; Bruss, G. S., et al., Psychiatry Res., 53, 191-202 (1994)). […] An additional dose of magnesium was administered approximately 12 hours later. To assess the significance of post-treatment changes, linear mixed effects (LME) models were used for each outcome measure. False Discovery Rate (FDR; Benjamini, Y. et al., J. R. Stat. Soc. Ser. B Methodol., 57, 289-300 (1995)) was applied to correct for multiple comparisons.
To further assess changes in comorbid psychiatric symptoms identified by the models, mean percent reduction, response rate, and remission rate according to the CAPS-5, MADRS and HAM-A (Table 1) were calculated. Response on the CAPS-5, MADRS, and HAM-A was defined as a reduction of at least 10 points (Mitchell, J. M. et al., Nat. Med. 27, 1025-1033(2021)), 50% (Leucht, S. et al., J. Affect. Disord. 210, 287-293 (2017)), and 50% (McIntyre, A. et al., Depress. Anxiety 24, 487-494 (2007)), respectively; remission as loss of diagnosis and a total score below 12 (Mitchell, J. M. et al. supra), <8 (Leucht, S. et al. supra), and <8(McIntyre, A. et al., supra), respectively.
With subjects in the fasting state, an intravenous infusion of 1 gram of magnesium sulfate was administered 1-2 hours prior to treatment. […] Medical staff (MD, RN, or EMT) were onsite at a ratio of at least 1 staff per 2 patients throughout treatment for monitoring and management, but no specific coaching or psychological support was provided during treatment.
Clinician administered scales included CAPS-5 (Clinician-administered PTSD Scale for DSM-5), which is a gold standard assessment of PTSD symptom severity; MADRS (Montgomery-Asberg Depression Rating Scale), a measure for depressive symptom severity: and Hamilton-Anxiety Rating Scale (HAM-A) (Shear, M. K. et al., Depress. Anxiety 13, 166-178 (2001)) a measure for anxiety symptom severity: SCID-5 (Structured Clinical Interview for DSM-5) Overview for a historical and environmental context of symptom presentation: MINI DSM-5 (Mini International Neuropsychiatric Interview from DSM-5) for a structured psychodiagnostics assessment: BAT-L (Boston Assessment of TBI-Lifetime) for a lifetime history of TBI and blast exposure: and Ohio State University TBI Identification Method (Short Form) for a lifetime history of TBI. MADRS testing provides an indication of depressive symptoms, CAPS-5 provides an indication of PTSD and SIGH-A provides an indication of anxiety. Collectively these overlap to provide indication of mood, concentration, sleep and tension.
The MADRS is a clinician-administered 10-item scale assessing the severity of depression symptoms. Items are rated on a scale of 0 (no abnormality) to 6 (severe) (Montgomery, S. A. et al., Br. J. Psychiatry J. Ment. Sci. 134, 382-389 (1979)). A total score of 0-6 indicates no depression, 7-19 mild depression, 20-34 moderate depression, 35-59 severe depression, and 60+ very severe depressive symptoms (Müller, M. J., J. Affect. Disord. 77, 255-260 (2003)).

[4] = orally administered to humans; possibly longer in poor CYP2D6 metabolizers; cited from earlier work
[5] = 1-mo. post, only participants meeting relevant MINI diagnostic criteria
[6] = 1-mo. post, only participants with mild TBI
[7] = 1-wk. post, only participants meeting relevant MINI diagnostic criteria
[8] = 1-wk. post, only participants with mild TBI

## CCC1CC2CC3c4[nH]c5ccc(OC)cc5c4CCN(C2)C13 (centres unmarked) [ibogaine, Ibogaine]
[1]; 23 episodes at baseline
  episodes of intoxication reported by one participant: four
[1]; 30 subjects, at baseline 11 of 30 drank at least four days per week
  enrolled subjects reporting drinking more than three times per week: zero
[1]; of the 30 enrolled subjects
  enrolled subjects reporting drinking less than twice per week over the past month: 28
[2]
  people who may suffer from cardiac arrest when treated: Approximately 1 in 300
[3]; [5]
  MADRS % Reduction vs Baseline: 81% ± 21%
  MADRS Remission Rate: 67%
  MADRS Response Rate: 93%
[3]; 1-mo. post, only participants meeting relevant MINI diagnostic criteria at baseline (N 15), baseline 31.3 ± 6.5
  MADRS score: 6.4
[3]; [6]
  MADRS % Reduction vs Baseline: 87% ± 17%
  MADRS Remission Rate: 85%
  MADRS Response Rate: 96%
[3]; 1-mo. post, only participants with mild TBI (N 28), baseline 25.2 ± 8.7
  MADRS score: 3.6
[3]; 1-mo. post
  Suicidal Ideation (MADRS Q10), % Reporting: 14%
[3]; 1-wk post, only participants meeting relevant MINI diagnostic criteria at baseline (N 15), baseline 31.3 ± 6.5
  MADRS score: 3.6
[3]; 1-wk post
  Suicidal Ideation (MADRS Q10), % Reporting: 0%
[3]; [7]
  MADRS % Reduction vs Baseline: 89% ± 11%
  MADRS Remission Rate: 73%
  MADRS Response Rate: 100%
[3]; [8]
  MADRS % Reduction vs Baseline: 87% ± 24%
  MADRS Remission Rate: 85%
  MADRS Response Rate: 100%
[3]; 1-wk. post, only participants with mild TBI (N 28), baseline 25.2 ± 8.7
  MADRS score: 2.7
[3]; FIG. 4B
  subjects meeting criteria for remission with a MADRS score of less than 7: 82%
  subjects meeting criteria for response, reduction of more than 50% in MADRS symptom severity: 96%
[3]; baseline vs 1-mo. post, only participants meeting relevant MINI diagnostic criteria (N 15)
  MADRS, effect size D: 3.15
[3]; baseline vs 1-mo. post, only participants with mild TBI (N 28)
  MADRS, effect size D: 2.70
[3]; baseline vs 1-wk post, only participants with mild TBI (N 28)
  MADRS, effect size D: 2.55
[3]; baseline vs 1-wk. post, only participants meeting relevant MINI diagnostic criteria (N 15)
  MADRS, effect size D: 4.11
[3]; baseline vs one-month post, all participants
  MADRS, effect size D: 2.80
[3]; baseline vs one-week post, all participants
  MADRS, effect size D: 2.65
[3]; one-month post, 29 participants, remission = score <8
  MADRS Remission Rate: 83%
[3]; one-month post, 29 participants, response = reduction of at least 50%
  MADRS Response Rate: 97%
[3]; one-month post, all participants, baseline 25.6 ± 8.7, mean ± SD
  MADRS score: 3.8
[3]; one-month post, all participants, mean ± SD
  MADRS % Reduction vs Baseline: 87% ± 17%
[3]; one-week post, 29 participants, remission = score <8
  MADRS Remission Rate: 83%
[3]; one-week post, 29 participants, response = reduction of at least 50%
  MADRS Response Rate: 100%
[3]; one-week post, all participants, mean ± SD
  MADRS % Reduction vs Baseline: 87% ± 23%
[4]
  half-life: about 7.5 hours
